Read-outs that look alike come from different tables or passages of the source.
Tests used:
[1] = molecular target: PIK3CB (Homo sapiens, UniProt P42338); set-up: Invitrogen kinase panel, per cent inhibition of kinase activity; conditions: 10 µM, inhibitor
Summary of the method: (§1)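 Compounds from a BDK inhibitor screen were counter-screened for off-target activity in a kinase panel.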

[2] = molecular target: T1, mixed lineage kinase 1 (Homo sapiens, UniProt P80192); set-up: Invitrogen kinase panel, per cent inhibition of kinase activity; conditions: 10 µM, inhibitor
T1 construct: gene MAP3K9
T1 sequence (P80192 whole entry): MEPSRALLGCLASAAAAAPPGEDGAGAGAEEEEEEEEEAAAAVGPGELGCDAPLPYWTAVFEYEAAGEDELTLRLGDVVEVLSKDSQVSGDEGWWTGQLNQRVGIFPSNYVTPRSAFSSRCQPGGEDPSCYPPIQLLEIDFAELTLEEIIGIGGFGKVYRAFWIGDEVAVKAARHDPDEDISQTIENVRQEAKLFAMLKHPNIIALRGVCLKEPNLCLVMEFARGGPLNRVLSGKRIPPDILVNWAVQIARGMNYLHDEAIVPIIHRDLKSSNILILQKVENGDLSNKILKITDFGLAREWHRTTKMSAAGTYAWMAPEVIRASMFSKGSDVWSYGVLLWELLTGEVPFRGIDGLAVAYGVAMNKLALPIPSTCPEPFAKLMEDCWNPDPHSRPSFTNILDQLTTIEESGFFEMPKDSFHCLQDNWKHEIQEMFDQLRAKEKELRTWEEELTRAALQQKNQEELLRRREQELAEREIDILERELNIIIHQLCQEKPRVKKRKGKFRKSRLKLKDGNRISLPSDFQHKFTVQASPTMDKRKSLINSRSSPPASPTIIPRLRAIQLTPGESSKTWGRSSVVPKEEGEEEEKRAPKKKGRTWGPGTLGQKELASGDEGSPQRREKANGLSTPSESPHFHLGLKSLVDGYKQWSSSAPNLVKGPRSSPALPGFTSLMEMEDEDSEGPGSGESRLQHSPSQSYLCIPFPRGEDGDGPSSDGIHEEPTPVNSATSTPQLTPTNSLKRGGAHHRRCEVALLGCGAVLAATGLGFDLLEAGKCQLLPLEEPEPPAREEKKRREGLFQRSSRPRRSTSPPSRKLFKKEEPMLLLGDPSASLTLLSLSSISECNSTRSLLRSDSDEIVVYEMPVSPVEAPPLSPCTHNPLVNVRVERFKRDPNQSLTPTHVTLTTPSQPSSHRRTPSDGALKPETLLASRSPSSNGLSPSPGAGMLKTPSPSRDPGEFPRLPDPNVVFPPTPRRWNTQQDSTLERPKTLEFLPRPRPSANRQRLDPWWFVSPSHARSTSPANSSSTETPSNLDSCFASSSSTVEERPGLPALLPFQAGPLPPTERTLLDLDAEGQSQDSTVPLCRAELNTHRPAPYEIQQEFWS
Summary of the method: as §1

[3] = molecular target: T2, CKI-delta (Homo sapiens, UniProt P48730); set-up: Invitrogen kinase panel, per cent inhibition of kinase activity; conditions: 10 µM, inhibitor
T2 construct: gene CSNK1D
Summary of the method: as §1

[4] = molecular target: AKT1 (Homo sapiens, UniProt P31749); set-up: Invitrogen kinase panel, per cent inhibition of kinase activity; conditions: 10 µM, inhibitor
Chain of AKT1 (P31749 whole entry): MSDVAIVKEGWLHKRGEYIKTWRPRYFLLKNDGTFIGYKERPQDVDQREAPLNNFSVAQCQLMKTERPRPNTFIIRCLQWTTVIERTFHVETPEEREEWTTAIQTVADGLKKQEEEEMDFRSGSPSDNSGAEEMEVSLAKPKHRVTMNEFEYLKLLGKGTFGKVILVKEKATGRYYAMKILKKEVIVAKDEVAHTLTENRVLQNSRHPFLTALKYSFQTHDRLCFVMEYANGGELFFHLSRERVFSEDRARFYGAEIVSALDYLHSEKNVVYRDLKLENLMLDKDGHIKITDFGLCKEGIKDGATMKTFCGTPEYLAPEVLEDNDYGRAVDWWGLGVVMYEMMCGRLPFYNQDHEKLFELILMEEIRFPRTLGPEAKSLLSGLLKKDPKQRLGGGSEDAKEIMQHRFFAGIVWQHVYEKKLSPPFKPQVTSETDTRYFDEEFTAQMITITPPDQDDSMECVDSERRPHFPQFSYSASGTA
Experimental: (§2) To discover a potent and selective BDK inhibitor, a subset of the Pfizer compound collection was screened. […] Off target activity was assessed in both CEREP and kinase panels (Supplementary Tables 2, 3).

[5] = molecular target: GSK3B (Homo sapiens, UniProt P49841); set-up: Invitrogen kinase panel, per cent inhibition of kinase activity; conditions: 10 µM, inhibitor
Chain of GSK3B (P49841 whole entry): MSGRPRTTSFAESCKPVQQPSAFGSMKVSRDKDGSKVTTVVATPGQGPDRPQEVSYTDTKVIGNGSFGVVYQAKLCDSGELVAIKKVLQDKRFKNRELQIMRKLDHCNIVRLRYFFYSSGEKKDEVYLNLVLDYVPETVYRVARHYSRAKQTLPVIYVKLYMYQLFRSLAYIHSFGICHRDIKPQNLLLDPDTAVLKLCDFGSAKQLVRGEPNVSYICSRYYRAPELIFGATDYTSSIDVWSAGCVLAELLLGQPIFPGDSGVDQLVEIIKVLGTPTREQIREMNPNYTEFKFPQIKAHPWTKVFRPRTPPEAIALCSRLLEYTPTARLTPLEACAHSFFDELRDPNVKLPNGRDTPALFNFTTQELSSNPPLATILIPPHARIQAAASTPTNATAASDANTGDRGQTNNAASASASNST
Experimental: as §2

[6] = molecular target: T3, JNK2 (Homo sapiens, UniProt P45984); set-up: Invitrogen kinase panel, per cent inhibition of kinase activity; conditions: 10 µM, inhibitor
T3 construct: gene MAPK9
T3 sequence (P45984 whole entry): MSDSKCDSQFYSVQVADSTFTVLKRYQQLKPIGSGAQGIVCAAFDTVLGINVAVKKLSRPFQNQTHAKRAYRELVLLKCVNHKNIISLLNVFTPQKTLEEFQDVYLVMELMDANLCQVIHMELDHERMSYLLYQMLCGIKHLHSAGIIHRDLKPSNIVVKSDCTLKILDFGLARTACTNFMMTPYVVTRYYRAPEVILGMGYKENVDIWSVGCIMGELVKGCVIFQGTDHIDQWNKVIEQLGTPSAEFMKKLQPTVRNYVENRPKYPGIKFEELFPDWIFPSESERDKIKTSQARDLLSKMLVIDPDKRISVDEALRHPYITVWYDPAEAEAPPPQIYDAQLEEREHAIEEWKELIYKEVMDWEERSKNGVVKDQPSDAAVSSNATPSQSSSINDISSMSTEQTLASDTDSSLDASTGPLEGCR
Experimental: as §2

[7] = molecular target: MAPK13 (Homo sapiens, UniProt O15264); set-up: Invitrogen kinase panel, per cent inhibition of kinase activity; conditions: 10 µM, inhibitor
Summary of the method: as §1

[8] = molecular target: PIK3CD (Homo sapiens, UniProt O00329); set-up: Invitrogen kinase panel, per cent inhibition of kinase activity; conditions: 10 µM, inhibitor
Summary of the method: as §1

[9] = molecular target: T4, JAK3 (Homo sapiens, UniProt P52333); set-up: Invitrogen kinase panel, per cent inhibition of kinase activity; conditions: 10 µM, inhibitor
T4 sequence (P52333 1-1124): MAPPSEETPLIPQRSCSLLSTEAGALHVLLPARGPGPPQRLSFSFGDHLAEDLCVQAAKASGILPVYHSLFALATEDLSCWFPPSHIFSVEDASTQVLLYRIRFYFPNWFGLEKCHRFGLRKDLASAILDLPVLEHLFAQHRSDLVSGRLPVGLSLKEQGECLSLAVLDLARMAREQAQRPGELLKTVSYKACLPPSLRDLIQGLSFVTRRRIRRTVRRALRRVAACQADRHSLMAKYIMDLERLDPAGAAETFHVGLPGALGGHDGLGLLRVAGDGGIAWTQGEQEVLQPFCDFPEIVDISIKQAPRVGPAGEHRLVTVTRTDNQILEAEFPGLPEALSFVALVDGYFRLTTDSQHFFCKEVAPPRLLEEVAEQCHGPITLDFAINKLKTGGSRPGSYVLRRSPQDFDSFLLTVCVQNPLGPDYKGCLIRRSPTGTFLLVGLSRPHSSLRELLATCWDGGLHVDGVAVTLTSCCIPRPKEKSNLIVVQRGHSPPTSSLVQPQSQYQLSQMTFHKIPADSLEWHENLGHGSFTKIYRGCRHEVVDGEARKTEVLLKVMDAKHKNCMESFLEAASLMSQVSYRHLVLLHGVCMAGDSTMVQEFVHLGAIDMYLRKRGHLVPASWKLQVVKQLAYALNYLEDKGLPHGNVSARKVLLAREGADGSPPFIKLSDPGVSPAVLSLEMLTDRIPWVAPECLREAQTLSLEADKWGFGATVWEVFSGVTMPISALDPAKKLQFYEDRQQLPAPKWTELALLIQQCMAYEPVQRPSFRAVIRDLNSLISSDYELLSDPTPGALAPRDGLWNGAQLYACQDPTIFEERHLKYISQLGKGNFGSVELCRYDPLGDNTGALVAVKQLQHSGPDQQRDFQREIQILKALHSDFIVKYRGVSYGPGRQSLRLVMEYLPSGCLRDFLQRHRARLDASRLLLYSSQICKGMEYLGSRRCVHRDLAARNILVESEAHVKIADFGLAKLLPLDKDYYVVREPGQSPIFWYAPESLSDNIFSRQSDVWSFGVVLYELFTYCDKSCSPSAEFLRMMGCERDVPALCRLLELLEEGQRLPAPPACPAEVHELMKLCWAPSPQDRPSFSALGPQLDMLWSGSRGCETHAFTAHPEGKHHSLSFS
Experimental: as §2

[10] = molecular target: CAMK2A (Homo sapiens, UniProt Q9UQM7); set-up: Invitrogen kinase panel, per cent inhibition of kinase activity; conditions: 10 µM, inhibitor
Chain of CAMK2A (Q9UQM7 whole entry): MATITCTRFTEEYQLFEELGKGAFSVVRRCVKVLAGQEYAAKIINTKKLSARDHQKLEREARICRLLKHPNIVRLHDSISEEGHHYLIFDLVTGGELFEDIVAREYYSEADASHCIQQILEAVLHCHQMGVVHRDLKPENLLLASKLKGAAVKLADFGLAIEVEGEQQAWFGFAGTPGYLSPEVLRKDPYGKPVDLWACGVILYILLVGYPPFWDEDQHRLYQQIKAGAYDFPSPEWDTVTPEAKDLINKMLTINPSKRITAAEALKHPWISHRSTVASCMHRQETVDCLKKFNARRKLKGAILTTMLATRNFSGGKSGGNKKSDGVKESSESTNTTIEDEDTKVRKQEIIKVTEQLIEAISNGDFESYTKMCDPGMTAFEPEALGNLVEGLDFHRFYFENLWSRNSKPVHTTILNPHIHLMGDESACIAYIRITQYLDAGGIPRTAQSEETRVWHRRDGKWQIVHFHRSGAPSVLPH
Experimental: as §2

[11] = molecular target: CSNK1A1 (Homo sapiens, UniProt P48729); set-up: Invitrogen kinase panel, per cent inhibition of kinase activity; conditions: 10 µM, inhibitor
Chain of CSNK1A1 (P48729 whole entry): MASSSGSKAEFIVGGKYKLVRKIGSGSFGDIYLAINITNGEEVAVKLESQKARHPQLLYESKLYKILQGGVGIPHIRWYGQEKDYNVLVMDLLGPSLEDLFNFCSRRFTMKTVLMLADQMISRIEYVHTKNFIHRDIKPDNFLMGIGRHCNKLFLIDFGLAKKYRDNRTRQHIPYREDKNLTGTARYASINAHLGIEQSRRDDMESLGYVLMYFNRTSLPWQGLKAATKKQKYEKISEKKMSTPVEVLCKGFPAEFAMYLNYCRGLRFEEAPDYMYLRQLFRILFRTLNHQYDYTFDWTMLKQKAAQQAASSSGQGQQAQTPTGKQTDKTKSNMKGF
Experimental: as §2

[12] = molecular target: BTK (Homo sapiens, UniProt Q06187); set-up: Invitrogen kinase panel, per cent inhibition of kinase activity; conditions: 10 µM, inhibitor
Chain of BTK (Q06187 whole entry): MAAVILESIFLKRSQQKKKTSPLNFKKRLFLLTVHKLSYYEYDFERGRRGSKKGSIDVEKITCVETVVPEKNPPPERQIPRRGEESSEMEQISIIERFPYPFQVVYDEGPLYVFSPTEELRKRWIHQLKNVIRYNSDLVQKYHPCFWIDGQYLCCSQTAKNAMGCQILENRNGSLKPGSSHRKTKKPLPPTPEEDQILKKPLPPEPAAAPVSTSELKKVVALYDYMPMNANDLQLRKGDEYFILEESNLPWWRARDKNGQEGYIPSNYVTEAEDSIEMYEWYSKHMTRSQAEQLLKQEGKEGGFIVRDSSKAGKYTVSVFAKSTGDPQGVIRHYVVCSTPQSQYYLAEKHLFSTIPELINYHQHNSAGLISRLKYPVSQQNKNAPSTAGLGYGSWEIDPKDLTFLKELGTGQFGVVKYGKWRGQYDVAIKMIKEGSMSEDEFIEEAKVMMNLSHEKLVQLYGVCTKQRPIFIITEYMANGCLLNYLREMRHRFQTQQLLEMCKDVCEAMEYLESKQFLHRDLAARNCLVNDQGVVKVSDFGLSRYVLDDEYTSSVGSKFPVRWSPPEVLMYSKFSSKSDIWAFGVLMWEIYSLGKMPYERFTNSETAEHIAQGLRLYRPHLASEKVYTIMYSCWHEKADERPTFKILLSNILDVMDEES
Experimental: as §2

[13] = molecular target: T5, PPAR-gamma (Homo sapiens, UniProt P37231); experiment: biochemical; set-up: Cerep Bioprint off-target panel, ligand binding inhibition
T5 construct: gene PPARG
T5 sequence (P37231 1-505): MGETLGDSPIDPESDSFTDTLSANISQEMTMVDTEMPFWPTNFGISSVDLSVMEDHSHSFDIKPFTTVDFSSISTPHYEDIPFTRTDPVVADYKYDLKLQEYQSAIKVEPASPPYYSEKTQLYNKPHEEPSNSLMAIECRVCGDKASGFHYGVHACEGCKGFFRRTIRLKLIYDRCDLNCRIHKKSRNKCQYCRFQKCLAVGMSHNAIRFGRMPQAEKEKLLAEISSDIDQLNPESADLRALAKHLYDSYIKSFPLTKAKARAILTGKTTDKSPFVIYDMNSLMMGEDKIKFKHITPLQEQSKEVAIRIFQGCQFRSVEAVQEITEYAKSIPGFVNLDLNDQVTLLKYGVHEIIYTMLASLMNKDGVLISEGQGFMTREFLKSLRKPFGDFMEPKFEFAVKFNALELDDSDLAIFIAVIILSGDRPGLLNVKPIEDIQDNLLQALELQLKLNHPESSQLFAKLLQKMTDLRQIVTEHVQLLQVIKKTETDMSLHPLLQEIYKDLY
Experimental: as §2

Chain of PIK3CB (P42338 whole entry): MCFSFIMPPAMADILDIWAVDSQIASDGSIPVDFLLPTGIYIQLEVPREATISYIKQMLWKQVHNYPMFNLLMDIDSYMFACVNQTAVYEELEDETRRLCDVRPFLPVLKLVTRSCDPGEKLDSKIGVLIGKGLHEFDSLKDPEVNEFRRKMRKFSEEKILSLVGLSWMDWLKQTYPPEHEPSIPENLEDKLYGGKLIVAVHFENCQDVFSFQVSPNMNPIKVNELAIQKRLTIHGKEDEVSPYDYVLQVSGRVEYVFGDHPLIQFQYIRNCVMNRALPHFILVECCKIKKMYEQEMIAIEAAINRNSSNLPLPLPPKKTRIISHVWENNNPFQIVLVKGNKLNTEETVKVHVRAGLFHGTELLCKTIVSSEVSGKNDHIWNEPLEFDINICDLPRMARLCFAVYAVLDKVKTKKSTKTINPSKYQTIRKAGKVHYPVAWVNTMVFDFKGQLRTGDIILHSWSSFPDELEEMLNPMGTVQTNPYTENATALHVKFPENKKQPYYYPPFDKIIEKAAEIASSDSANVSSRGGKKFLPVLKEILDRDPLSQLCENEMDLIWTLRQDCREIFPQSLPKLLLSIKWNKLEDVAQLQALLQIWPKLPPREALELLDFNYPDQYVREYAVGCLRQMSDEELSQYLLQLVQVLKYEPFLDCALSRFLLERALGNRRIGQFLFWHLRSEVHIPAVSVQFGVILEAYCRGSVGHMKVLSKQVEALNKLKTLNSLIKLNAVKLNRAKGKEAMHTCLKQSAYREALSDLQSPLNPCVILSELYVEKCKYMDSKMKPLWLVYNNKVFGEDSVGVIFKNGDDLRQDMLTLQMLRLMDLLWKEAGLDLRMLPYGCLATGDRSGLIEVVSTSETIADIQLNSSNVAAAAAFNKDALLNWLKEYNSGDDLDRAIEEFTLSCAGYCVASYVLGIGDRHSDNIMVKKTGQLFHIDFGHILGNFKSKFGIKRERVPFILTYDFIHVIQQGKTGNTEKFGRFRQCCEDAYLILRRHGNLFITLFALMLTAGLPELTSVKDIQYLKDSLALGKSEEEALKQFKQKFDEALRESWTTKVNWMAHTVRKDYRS

## CCC1(COc2ccc(-c3csc(-c4ccccc4C(=O)O)n3)cn2)CC1 [PF-07247685, 2-(4-{6-[(1-ethylcyclopropyl)methoxy]pyridin-3-yl}-1,3-thiazol-2-yl)benzoic acid]
[1]
  ATP = Km % Inhibition PF-07247685: -3.5%
[2]
  ATP = Km % Inhibition PF-07247685: 6.3%
[3]
  ATP = Km % Inhibition PF-07247685: 6.0%
[4]
  ATP = 1 mM % Inhibition PF-07247685: -0.8%
  ATP = Km % Inhibition PF-07247685: 2.4%
[5]
  ATP = 1 mM % Inhibition PF-07247685: 3.7%
  ATP = Km % Inhibition PF-07247685: 11.0%
[6]
  ATP = 100 uM % Inhibition PF-07247685: 4.3%
[7]
  ATP = Km % Inhibition PF-07247685: -0.7%
[8]
  ATP = Km % Inhibition PF-07247685: -7.0%
[9]
  ATP = 1 mM % Inhibition PF-07247685: -0.0%
  ATP = Km % Inhibition PF-07247685: 0.8%
[10]
  ATP = 1 mM % Inhibition PF-07247685: 3.5%
  ATP = Km % Inhibition PF-07247685: 2.8%
[11]
  ATP = 1 mM % Inhibition PF-07247685: 2.1%
  ATP = Km % Inhibition PF-07247685: 3.1%
[12]
  ATP = 1 mM % Inhibition PF-07247685: 3.1%
  ATP = Km % Inhibition PF-07247685: -0.7%
[13]; read-out: IC50 binding PF-07247685
  IC50: 50 µM

## O=C(O)c1sc2cc(F)sc2c1Cl [PF-07208254, 3-chloro-5-fluorothieno[3,2-b]thiophene-2-carboxylic acid]
[1]
  ATP = Km % Inhibition PF-07208254: 3.1%
[2]
  ATP = Km % Inhibition PF-07208254: 3.2%
[3]
  ATP = Km % Inhibition PF-07208254: 9.1%
[4]
  ATP = 1 mM % Inhibition PF-07208254: -0.8%
  ATP = Km % Inhibition PF-07208254: 6.7%
[5]
  ATP = 1 mM % Inhibition PF-07208254: 0.7%
  ATP = Km % Inhibition PF-07208254: 9.7%
[6]
  ATP = 100 uM % Inhibition PF-07208254: -3.0%
[7]
  ATP = Km % Inhibition PF-07208254: 3.6%
[8]
  ATP = Km % Inhibition PF-07208254: 6.4%
[9]
  ATP = 1 mM % Inhibition PF-07208254: -4.1%
  ATP = Km % Inhibition PF-07208254: 0.9%
[10]
  ATP = 1 mM % Inhibition PF-07208254: -0.3%
  ATP = Km % Inhibition PF-07208254: 6.8%
[11]
  ATP = 1 mM % Inhibition PF-07208254: -0.6%
  ATP = Km % Inhibition PF-07208254: 9.2%
[12]
  ATP = 1 mM % Inhibition PF-07208254: 0.8%
  ATP = Km % Inhibition PF-07208254: 5.9%
[13]
  IC50: 86 µM

— PMC10412597, “Small molecule branched-chain ketoacid dehydrogenase kinase (BDK) inhibitors with opposing effects on BDK protein levels” (Nature Communications, 2023)
